Holding throughout (assay type): in vivo
What all share (design): key: 0: there is no or little difference in the degree of growth between treated plants and untreated plants at the time of observation; 1: evaluated at 6 levels using the indices of 0 to 5; 2: evaluated at 6 levels using the indices of 0 to 5; 3: evaluated at 6 levels using the indices of 0 to 5; The herbicidal values of “4” and “5” show excellent herbicidal activity; 5: the test plants die completely or their growth is completely inhibited

One assay concerns Lolium multiflorum. The assay can be described thus: Test Example 1, soil application, pot test in greenhouse. Conditions: 34 days after application. The text has this:
(§1) The herbicidal values of “4” and “5” show excellent herbicidal activity. Each of plastic pots (measuring 22 cm in diameter and 19 cm in height) was filled with upland field soil and sown with Lolium multiflorum and Alopecurus myosuroides. Each of the predetermined amounts of a flumioxazin formulation product (trade name: Valor_SX, manufactured by Valent USA Corporation), a sulfosulfuron formulation product (trade name: Monitor, manufactured by Monsanto Company) and a mixture of the flumioxazin formulation product and the sulfosulfuron formulation product was diluted with water, and then the dilution was uniformly sprayed over the soil surface by a small-sized sprayer. After the treatment, the weeds were grown in a greenhouse, and the herbicidal activity against the weeds was evaluated at 34 days after application.

For a further assay, the system named is Alopecurus myosuroides. The description is as above. Conditions: 34 days after application.
Source text: as §1

For a further assay, the system named is Solidago altissima. The experiment in a line: Test Example 2, foliar application, pot test in greenhouse. Conditions: 29 days after treatment. The text has this: The herbicidal values of “4” and “5” show excellent herbicidal activity. Each of plastic pots (measuring 12 cm in diameter and 8 cm in height) was filled with upland field soil and Solidago altissima collected from outdoors was transplanted to the plastic pot and grown in a greenhouse for 31 days. Each of the predetermined amounts of a flumioxazin formulation product (trade name: Valor_SX, manufactured by Valent USA Corporation), a sulfosulfuron formulation product (trade name: Monitor, manufactured by Monsanto Company) and a mixture of the flumioxazin formulation product and the sulfosulfuron formulation product was diluted with water, and then the dilution was uniformly sprayed over each plant body from above by a small-sized sprayer. After the treatment, the weeds were grown in a greenhouse for 29 days, and then the herbicidal activity against the weeds was evaluated.

From patent US8399380B2, “Herbicidal composition” (Sumitomo Chemical Company, Limited, priority 2007, dated 2013) come the findings set out here.

SMILES strings stand for the structures.

In the case of `CCS(=O)(=O)c1nc2ccccn2c1S(=O)(=O)NC(=O)Nc1nc(OC)cc(OC)n1` [Sulfosulfuron, 1-(4,6-dimethoxypyrimidin-2-yl)-3-(2-ethylsulfonylimidazo[1,2-a]pyridin-3-ylsulfonyl)urea], the “Herbicidal activity Lolium multiflorum” value with Lolium multiflorum (active ingredient 20 g/ha) and with Lolium multiflorum (active ingredient 40 g/ha) was 0 throughout. In addition, the “Herbicidal activity Alopecurus myosuroides” value in the assay on Alopecurus myosuroides (active ingredient 20 g/ha) came out at 0; with Alopecurus myosuroides (active ingredient 40 g/ha), 2. Moreover, the “Herbicidal activity Solidago altissima” value with Solidago altissima (active ingredient 40 g/ha) was 2.
In the case of `C#CCN1C(=O)COc2cc(F)c(N3C(=O)C4=C(CCCC4)C3=O)cc21` [Flumioxazin, N-(7-fluoro-3,4-dihydro-3-oxo-4-prop-2-ynyl-2H-1,4-benzeoxazin-6-yl)cyclohex-1-ene-1,2-dicarboxamide], the “Herbicidal activity Lolium multiflorum” value in the assay with Lolium multiflorum (active ingredient 10 g/ha) was found to be 0; in the assay with Lolium multiflorum (active ingredient 20 g/ha) it was 1. Besides, the “Herbicidal activity Alopecurus myosuroides” value in the assay on Alopecurus myosuroides (active ingredient 10 g/ha) is on record as 1; in the assay on Alopecurus myosuroides (active ingredient 20 g/ha), 4. Moreover, the results for the “Herbicidal activity Solidago altissima” value in the assay with Solidago altissima (active ingredient 60 g/ha) and in the assay on Solidago altissima (active ingredient 120 g/ha) were 0 and 1, respectively.
